# From PubChem BioAssay AID1963968 (Molecular Pharmacology Branch, DTP, NCI, 2024)
# pIC50: −log10 of the molar value.
# Tested on: 945468-187-T-J3-PDC spheroids with HUVEC/MSC, viability
# Assay: Anticancer human tumor 945468-187-T-J3-PDC patient-derived rectal carcinoma cell line growth inhibition [PI3K]
# Details: for pIC50: curve of first compound; for viability, T/C: stronger effect = lower value
# Summary of the method: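 Tumor cells grown as multi-cell spheroids with HUVEC endothelial cells and MSC fibroblast-like stroma were treated with targeted agents combined with inavolisib, alpelisib, duvelisib or copanlisib. Doses fell in half-log steps from near clinical Cmax, else from 10 microM. Viability was measured.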
# [1] = second compound 0.0316 µM, first compound 0.0316 µM
# [2] = second compound 0.0316 µM, first compound 0.1 µM
# [3] = second compound 0.0316 µM, first compound 0.316 µM
# [4] = second compound 0.0316 µM, first compound 1 µM
# [5] = second compound 0.1 µM, first compound 0.0316 µM
# [6] = second compound 0.1 µM, first compound 0.1 µM
# [7] = second compound 0.1 µM, first compound 0.316 µM
# [8] = second compound 0.1 µM, first compound 1 µM
# [9] = second compound 0.316 µM, first compound 0.0316 µM
# [10] = second compound 0.316 µM, first compound 0.1 µM
# [11] = second compound 0.316 µM, first compound 0.316 µM
# [12] = second compound 0.316 µM, first compound 1 µM
# [13] = second compound 1 µM, first compound 0.0316 µM
# [14] = second compound 1 µM, first compound 0.1 µM
# [15] = second compound 1 µM, first compound 0.316 µM
# [16] = second compound 1 µM, first compound 1 µM
# [17] = second compound 3.16 µM, first compound 0.0316 µM
# [18] = second compound 3.16 µM, first compound 0.1 µM
# [19] = second compound 3.16 µM, first compound 0.316 µM
# [20] = second compound 3.16 µM, first compound 1 µM
# [21] = second compound 10 µM, first compound 0.0316 µM
# [22] = second compound 10 µM, first compound 0.1 µM
# [23] = second compound 10 µM, first compound 0.316 µM
# [24] = second compound 10 µM, first compound 1 µM
# 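Also: spheroids exposed to agents for 7 days before viability read.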
# 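For viability, T/C in this document: 100% = DMSO vehicle control viability.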
structure (smiles),measurement,setting,value
CC(C)NCC(C(=O)N1CCN(c2ncnc3c2C(C)CC3O)CC1)c1ccc(Cl)cc1 (centres undefined) + CC(Nc1ncnc2nc[nH]c12)c1cc2cccc(Cl)c2c(=O)n1-c1ccccc1,pIC50,second compound 0.0316 µM,5.34
same,pIC50,second compound 0.1 µM,5.16
same,pIC50,second compound 0.316 µM,5.18
same,pIC50,second compound 1 µM,5.08
same,pIC50,second compound 3.16 µM,5.53
same,pIC50,second compound 10 µM,5.69
same,"viability, T/C",[1],112%
same,"viability, T/C",[2],100%
same,"viability, T/C",[3],104%
same,"viability, T/C",[4],78.9%
same,"viability, T/C","second compound 0.0316 µM, first compound 3.16 µM",56.3%
same,"viability, T/C","second compound 0.0316 µM, first compound 10 µM",38.4%
same,"viability, T/C",[5],119%
same,"viability, T/C",[6],92.3%
same,"viability, T/C",[7],86%
same,"viability, T/C",[8],88.6%
same,"viability, T/C","second compound 0.1 µM, first compound 3.16 µM",62.6%
same,"viability, T/C","second compound 0.1 µM, first compound 10 µM",40.5%
same,"viability, T/C",[9],97.2%
same,"viability, T/C",[10],93.2%
same,"viability, T/C",[11],94.6%
same,"viability, T/C",[12],87.6%
same,"viability, T/C","second compound 0.316 µM, first compound 3.16 µM",63.5%
same,"viability, T/C","second compound 0.316 µM, first compound 10 µM",42.7%
same,"viability, T/C",[13],114%
same,"viability, T/C",[14],103%
same,"viability, T/C",[15],85.3%
same,"viability, T/C",[16],86%
same,"viability, T/C","second compound 1 µM, first compound 3.16 µM",58.6%
same,"viability, T/C","second compound 1 µM, first compound 10 µM",48.1%
same,"viability, T/C",[17],98.3%
same,"viability, T/C",[18],91.8%
same,"viability, T/C",[19],84.2%
same,"viability, T/C",[20],79.2%
same,"viability, T/C","second compound 3.16 µM, first compound 3.16 µM",46.5%
same,"viability, T/C","second compound 3.16 µM, first compound 10 µM",32.4%
same,"viability, T/C",[21],90.7%
same,"viability, T/C",[22],88%
same,"viability, T/C",[23],82.8%
same,"viability, T/C",[24],70.8%
same,"viability, T/C","second compound 10 µM, first compound 3.16 µM",37.5%
same,"viability, T/C","second compound 10 µM, first compound 10 µM",28.2%
CCN1CCN(Cc2ccc(Nc3ncc(F)c(-c4cc(F)c5nc(C)n(C(C)C)c5c4)n3)nc2)CC1 + CC(Nc1ncnc2nc[nH]c12)c1cc2cccc(Cl)c2c(=O)n1-c1ccccc1,pIC50,second compound 0.0316 µM,< 6.00
same,pIC50,second compound 0.1 µM,< 6.00
same,pIC50,second compound 0.316 µM,< 6.00
same,pIC50,second compound 1 µM,< 6.00
same,pIC50,second compound 3.16 µM,< 6.00
same,pIC50,second compound 10 µM,6.12
same,"viability, T/C","second compound 0.0316 µM, first compound 0.00316 µM",88.7%
same,"viability, T/C","second compound 0.0316 µM, first compound 0.01 µM",110%
same,"viability, T/C",[1],107%
same,"viability, T/C",[2],94%
same,"viability, T/C",[3],102%
same,"viability, T/C",[4],79.2%
same,"viability, T/C","second compound 0.1 µM, first compound 0.00316 µM",91.5%
same,"viability, T/C","second compound 0.1 µM, first compound 0.01 µM",85.3%
same,"viability, T/C",[5],99%
same,"viability, T/C",[6],99.5%
same,"viability, T/C",[7],102%
same,"viability, T/C",[8],72%
same,"viability, T/C","second compound 0.316 µM, first compound 0.00316 µM",97.3%
same,"viability, T/C","second compound 0.316 µM, first compound 0.01 µM",91%
same,"viability, T/C",[9],89.8%
same,"viability, T/C",[10],113%
same,"viability, T/C",[11],106%
same,"viability, T/C",[12],72.8%
same,"viability, T/C","second compound 1 µM, first compound 0.00316 µM",87.8%
same,"viability, T/C","second compound 1 µM, first compound 0.01 µM",95.9%
same,"viability, T/C",[13],91.3%
same,"viability, T/C",[14],103%
same,"viability, T/C",[15],93.8%
same,"viability, T/C",[16],69.2%
same,"viability, T/C","second compound 3.16 µM, first compound 0.00316 µM",93.9%
same,"viability, T/C","second compound 3.16 µM, first compound 0.01 µM",101%
same,"viability, T/C",[17],103%
same,"viability, T/C",[18],95.1%
same,"viability, T/C",[19],93%
same,"viability, T/C",[20],52.5%
same,"viability, T/C","second compound 10 µM, first compound 0.00316 µM",91.5%
same,"viability, T/C","second compound 10 µM, first compound 0.01 µM",89.5%
same,"viability, T/C",[21],91%
same,"viability, T/C",[22],106%
same,"viability, T/C",[23],90%
same,"viability, T/C",[24],37.1%
